Each structure is given as a SMILES string. Entries after “also recorded” stand apart in the source; their conditions may differ. Like-named read-outs stand apart in the source and are kept apart here.

In this assay the target is neuraminidase from Clostridium perfringens (Clostridium perfringens, UniProt A0A0H2YQR1). Type of assay: biochemical. Particulars: for Type of Inhibition: Lineweaver-Burk plot.
Sequence of neuraminidase from Clostridium perfringens (A0A0H2YQR1 42-694 limits assumed): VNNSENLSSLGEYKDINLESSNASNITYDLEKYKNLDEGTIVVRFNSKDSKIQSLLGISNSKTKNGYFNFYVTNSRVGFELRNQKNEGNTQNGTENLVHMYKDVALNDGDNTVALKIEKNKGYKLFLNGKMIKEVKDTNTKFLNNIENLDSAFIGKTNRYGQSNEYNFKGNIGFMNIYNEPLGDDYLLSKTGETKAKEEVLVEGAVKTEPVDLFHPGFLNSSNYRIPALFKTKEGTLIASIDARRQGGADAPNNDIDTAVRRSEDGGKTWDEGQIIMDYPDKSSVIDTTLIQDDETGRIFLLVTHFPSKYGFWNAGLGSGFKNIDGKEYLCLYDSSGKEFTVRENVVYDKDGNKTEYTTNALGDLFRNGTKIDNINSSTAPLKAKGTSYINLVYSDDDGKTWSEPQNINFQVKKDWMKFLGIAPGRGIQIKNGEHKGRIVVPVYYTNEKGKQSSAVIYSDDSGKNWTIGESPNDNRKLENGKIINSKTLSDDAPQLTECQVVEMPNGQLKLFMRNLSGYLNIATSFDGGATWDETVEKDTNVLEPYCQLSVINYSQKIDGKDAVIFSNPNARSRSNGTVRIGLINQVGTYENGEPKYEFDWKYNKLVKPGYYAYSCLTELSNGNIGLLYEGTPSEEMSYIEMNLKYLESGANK

Take `O=C(/C=C/c1ccc(O)c(O)c1)O[C@@H]1C[C@](OC(=O)/C=C/c2ccc(O)c(O)c2)(C(=O)O)C[C@@H](O)[C@H]1O` [compound 3, 1,5-di-O-Caffeoylquinic Acid]: the “Type of Inhibition” value was “competitive inhibitor”. Where the note is “listed as 1,5-di-O-caffeoylquinic acid (3, 1,5-COQ)”, the “Type of Inhibition” value is “Competitive”. For the same molecule, under “remaining enzyme activity versus enzyme concentration at different inhibitor concentrations (Figure 2b)”, the reversibility of inhibition entry is on record as “reversible inhibitor”.
Regarding `C=C1COC(=O)[C@]12C[C@@]1(C)C([C@@H](OC(=O)/C=C\SC)CC[C@@H]1C)[C@H]2OC(C)=O` (stereo partly shown) [compound 2, Bakkenolide D], the “Type of Inhibition” value is given as “non-competitive inhibition”. The “Type of Inhibition” value (listed as Bakkenolide D (2)) is given as “non-competitive inhibitor; also recorded: Noncompetitive”.
As to `O=C(/C=C/c1ccc(O)c(O)c1)O[C@@H]1C[C@](O)(C(=O)O)C[C@@H](O)[C@H]1O` [compound 4, 5-O-Caffeoylquinic Acid], the “Type of Inhibition” value is “competitive inhibitor”. The “Type of Inhibition” value (listed as 5-O-Caffeoylquinic acid (4, 5-COQ)) is “Competitive”.

For the origin of these results see article PMC7357027 (Biomolecules, 2020).
